From patent publication US20080194585A1, “Fungicidal Pyrazine Derivatives” (priority 2005, published 2008)
Marks after values point to notes of the source that are not given here.

What was measured:
Phytophthora infestans = assay: whole plant or invertebrate; format: in vivo
Rhizoctonia oryzae = assay: Test G: turf brown patch, preventive spray on creeping bent grass seedlings
Description: (the causal agent of turf brown patch) and incubated in a saturated atmosphere at 27° C. for 24 h, and then moved to a growth chamber at 27° C. for 5 days, after which disease ratings were made.

Plasmopara viticola = assay: Test D: grape downy mildew, spray after inoculation of grape seedlings; format: in vivo
Excerpt: Upon removal, disease ratings were made. […] A dash (-) indicates no test results.

[1] = test system: Puccinia recondita f. sp. tritici; assay: Test K: wheat leaf rust, preventive spray on wheat seedlings
Botrytis cinerea = assay: Test E: tomato botrytis, preventive spray on tomato seedlings
Pythium aphanidermatum = assay: Test A: bluegrass pythium blight, preventive spray on bluegrass seedlings
[2] = test system: Erysiphe graminis f. sp. tritici; assay: Test L: wheat powdery mildew, preventive spray on wheat seedlings
Septoria nodorum = assay: Test H: wheat glum blotch, preventive spray on wheat seedlings
Description: (the causal agent of wheat glum blotch) and incubated in a saturated atmosphere at 20° C. for 48 h, and then moved to a growth chamber at 22° C. for 5 days, after which disease ratings were made.

Sclerotinia sclerotiorum = assay: Test C: cucumber white mold, preventive spray on cucumber seedlings
[3] = test system: Colletotrichum orbiculare; assay: Test B: cucumber Colletotrichum anthracnose, preventive spray on cucumber seedlings
Septoria tritici = assay: Test J: wheat leaf blotch, preventive spray on wheat seedlings; format: in vivo
Excerpt: A dash (-) indicates no test results.

fusarium graminearium = assay: Test I: wheat head scab, preventive spray on wheat seedlings
Description: (the causal agent of wheat head scab) and incubated in a saturated atmosphere at 20° C. for 72 h, and then moved to a growth chamber at 22° C. for 5 days, after which disease ratings were made.

SMILES	Test F disease control rating (Phytophthora infestans; 40 ppm (*))	Test G disease control rating (Rhizoctonia oryzae; 40 ppm (*))	Test D disease control rating (Plasmopara viticola; 40 ppm (*))	Test K disease control rating ([1]; 40 ppm (*))	Test E disease control rating (Botrytis cinerea; 40 ppm (*))	Test A disease control rating (Pythium aphanidermatum; 40 ppm (*))	Test L disease control rating ([2]; 40 ppm (*))	Test H disease control rating (Septoria nodorum; 40 ppm (*))	Test C disease control rating (Sclerotinia sclerotiorum; 40 ppm (*))	Test B disease control rating ([3]; 40 ppm (*))	Test J disease control rating (Septoria tritici; 40 ppm (*))	Test I disease control rating (fusarium graminearium; 40 ppm (*))	further results
COC(=O)c1ccc(-c2c(Cl)nc(-n3cncn3)c(=O)n2CC(C)C)cc1 [compound 146]	0* %	0* %	0* %	0* %	0* %	0* %	0* %	0* %	0* %	0* %	5* %	0* %	
COC(=O)c1ccc(-c2c(Cl)nc(-n3cccn3)c(=O)n2CC(C)C)cc1 [compound 147]													Test F disease control rating (Phytophthora infestans; 200 ppm): 93%; Test G disease control rating (Rhizoctonia oryzae; 200 ppm): 0%; Test D disease control rating (Plasmopara viticola; 200 ppm): 92%; Test K disease control rating ([1]; 200 ppm): 80%; Test E disease control rating (Botrytis cinerea; 200 ppm): 97%; Test A disease control rating (Pythium aphanidermatum; 200 ppm): 0%; Test L disease control rating ([2]; 200 ppm): 0%; Test H disease control rating (Septoria nodorum; 200 ppm): 0%; Test C disease control rating (Sclerotinia sclerotiorum; 200 ppm): 0%; Test B disease control rating ([3]; 200 ppm): 0%; Test J disease control rating (Septoria tritici; 200 ppm): 96%; Test I disease control rating (fusarium graminearium; 200 ppm): 0%
CC(C)Cn1c(-c2ccccc2)c(Cl)nc(-n2cccn2)c1=O [compound 172]	57* %	41* %	0* %	0* %	07* %	0* %	0* %	0* %	0* %	0* %	64* %	0* %	
CC(C)Cn1c(-c2ccccc2)c(Cl)nc(-n2cncn2)c1=O [compound 173]	0* %	0* %	0* %	0* %	0* %	0* %	0* %	0* %	0* %	0* %	45* %	0* %	
COc1ccccc1-c1c(Cl)nc(-n2cncn2)c(=O)n1CC(C)C [compound 177]	0* %	0* %	0* %	0* %	0* %	0* %	0* %	0* %	0* %	0* %	7* %	0* %	
CC(C)Cn1c(-c2cccc(F)c2)c(Cl)nc(-n2cncn2)c1=O [compound 230]	0* %	0* %	0* %	0* %	82* %	0* %	0* %	0* %	0* %	0* %	24* %	0* %	
CC(C)Cn1c(-c2cccc(F)c2)c(Cl)nc(-n2cccn2)c1=O [compound 231]	0* %	0* %	0* %	28* %	99* %	0* %	0* %	0* %	0* %	0* %	89* %	0* %	
CC(C)Cn1c(-c2cccc(C(F)(F)F)c2)c(Cl)nc(-n2cncn2)c1=O [compound 232]	0* %	0* %	0* %	0* %	0* %	0* %	0* %	0* %	0* %	0* %	0* %	0* %	
CC(C)Cn1c(-c2cccc(C(F)(F)F)c2)c(Cl)nc(-n2cccn2)c1=O [compound 233]	0* %	0* %	0* %	0* %	0* %	0* %	0* %	0* %	0* %	0* %	0* %	0* %	
CC(C)Cn1c(-c2cccc(Br)c2)c(Cl)nc(-n2cncn2)c1=O [compound 234]	0* %	0* %	0* %	0* %	0* %	0* %	0* %	0* %	0* %	0* %	0* %	0* %	
CC(C)Cn1c(-c2cccnc2)c(Cl)nc(-n2cncn2)c1=O [compound 235]	0* %	0* %	0* %	0* %	0* %	45* %	0* %	0* %	0* %	0* %	0* %	0* %	
CC(C)Cn1c(-c2cccnc2Cl)c(Cl)nc(-n2cncn2)c1=O [compound 236]	0* %	0* %	0* %	0* %	0* %	0* %	0* %	0* %	0* %	0* %	0* %	0* %	
CC(C)Cn1c(-c2cccnc2)c(Cl)nc(-n2cccn2)c1=O [compound 237]	0* %	0* %	0* %	0* %	0* %	0* %	0* %	0* %	0* %	0* %	24* %	0* %	
